Results reported in patent US9903855B2, “Assays for screening for or identifying an agent or molecule that can block or inhibit AVB3 integrin from forming a complex with KRAS” (THE REGENTS OF THE UNIVERSITY OF CALIFORNIA, priority 2012, dated 2018).

Key:
[1] = test system: FG and PANC-1 cells expressing or lacking integrin β3; experiment: Soft agar / tumorsphere 3D growth, drug dose response (Example 3); assay type: cell-based, human; details: cells growing in 3D
Description: Tumorsphere assay was performed as previously described. Soft agar formation assays were performed essentially as described previously. […] The media was replaced with fresh inhibitor 2/5 times a week. […] (a) Effect of integrin β3 expression (ectopic expression for FG and integrin β3-specific knockdown for PANC-1) cells on drug treatment response. Cells were treated with a dose response of gemcitabine, cisplatin, erlotinib, lapatinib and linsitinib. […] Tumor volumes are expressed as mean±SEM. *P<0.05. […] Results are expressed as % tumor weight compared to vehicle control. *P<0.05. […] HCC827 cells were treated with vehicle control or erlotinib (12.5 mg/kg/day) until acquired resistance. […] Data are mean±SE; **P<0.001. […] Scale bar, 50 μm. (h) Limiting dilution in vivo determining the frequency of tumor-initiating cells for HCC827 vehicle-treated (vehicle) and erlotinib-treated tumors from (erlotinib resistant non-sorted) (e). The HCC827 erlotinib-treated tumors have been digested and sorted in two groups: the integrin β3- and the integrin β3+ population.

[2] = test system: subcutaneous β3-positive tumors (FG-β3, FG-R); experiment: Subcutaneous β3-positive tumor xenografts; details: monotherapy; lenalidomide 25 mg/kg/day, bortezomib 0.25 mg/kg
Description: To generate subcutaneous tumors, FG-β3, FG-R (after erlotinib resistance) and HCC-827 human carcinoma cells (5×10^6 tumor cells in 200 μl of PBS) were injected subcutaneously to the left or right flank of 6-8-week-old female nude mice. Tumors were measured every 2-3 days with calipers until they were harvested at day 10, 16 or after acquired resistance.
(B) Left, mice bearing subcutaneous β3-positive tumors (FG-β3) were treated with vehicle, erlotinib (25 mg/kg/day), lenalidomide (25 mg/kg/day) or the combination of erlotinib and lenalidomide. Tumor dimensions are reported as the fold change relative to size of the same tumor on Day 1. […] Right, mice bearing subcutaneous β3-positive tumors (FG-R) after acquired resistance to erlotinib were treated with vehicle, erlotinib (25 mg/kg/day), bortezomib (0.25 mg/kg), the combination of erlotinib and bortezomib.

[3] = test system: β3-negative and β3-positive cells; experiment: Tumorsphere assay of β3-negative and β3-positive cells (Example 2); assay type: cell-based, human; details: β3-positive versus β3-negative cells
Description: Tumorsphere assay was performed as previously described (10). Cells were treated with vehicle (DMSO), erlotinib (10 nM to 5 μM), lapatinib (10 nM to 5 μM), gemcitabine (0.001 nM to 5 μM), OSI-906 (10 nM to 5 μM), lenalidomide (1 μM), cisplatin (10 nM to 5 μM), or bortezomib (4 nM) diluted in DMSO. The media was replaced with fresh inhibitor 2/6 times a week. Survival curves were generated at least with five concentration points.
(D) Representative photographs of crystal violet-stained tumorspheres of β3-negative and β3-positive cells after erlotinib, OSI-906, gemcitabine and cisplatin treatment. (E) Effect of integrin β3 expression on lapatinib, OSI-906, cisplatin and gemcitabine n=3; mean±SEM.

FG and FG-β3 cells = experiment: Tumor sphere formation assay of FG and FG-β3 cells; assay type: cell-based, human; details: FG-β3 versus FG
Description: Tumor spheres formation assays were performed essentially as described previously^17. Briefly, cells were seeded at 1000 to 2000 cells per well and grown for 12 days to 3 weeks. Cells were treated with vehicle (DMSO), erlotinib (10 nM to 5 μM), lapatinib (10 nM to 5 μM), gemcitabine (0.001 nM to 5 μM), OSI-906 (10 nM to 5 μM), lenalidomide (10 nM to 5 μM), or cisplatin (10 nM to 5 μM), diluted in DMSO. The media was replaced with fresh inhibitor every day for erlotinib, lapatinib, lenalidomide and 3 times a week for cisplatin and gemcitabine. Colonies were stained with crystal violet and scored with an Olympus SZH10 microscope. Survival curves were generated at least with five concentration points.

[4] = test system: β3-positive cells (FG-β3, MDA-MB231, FG-R); experiment: Soft agar anchorage independent growth, colonies counted; assay type: cell-based, human; details: erlotinib (0.5 μM), Lenalidomide (2 μM), PS-1145 (1 μM) alone, 10 to 15 days
From the text: Then, the soft agar were stained with crystal violet and the colonies were counted manually.

EGFR phosphorylation = experiment: Immunoblot analysis of orthotopic FG tumor lysates; assay type: in vivo, mice; details: after 10 days of erlotinib
Description: Error bars represent s.d. […] Scale bar, 50 μm. […] Scale bar, 100 μm.
All mouse experiments were carried out in accordance with approved protocols from the UCSD animal subjects committee and with the guidelines set forth in the NIH Guide for the Care and Use of Laboratory Animals. Tumors were generated by injection of FG human pancreatic carcinoma cells (10^6 tumor cells in 30 μL of sterile PBS) into the tail of the pancreas of 6-8 week old male immune compromised nu/nu mice.

PANC-1 cells = experiment: Tumor sphere formation assay, erlotinib dose-response; assay type: cell-based, human; details: knockdown of αvβ3 in PANC-1 cells
From the text: (§1) (a) Flow cytometric quantification of cell surface markers after 3 weeks treatment with erlotinib (pancreatic and colon cancer cells) or lapatinib (breast cancer cells). (b) Flow cytometric analysis of αvβ3 expression in FG and Miapaca-2 cells following erlotinib. Error bars represent s.d. (n=3 independent experiments). (c) Top, immunofluorescence staining of integrin αvβ3 in tissue specimens obtained from orthotopic pancreatic tumors treated with vehicle (n=3) or erlotinib (n=4). Scale bar, 50 μm. Bottom, Integrin αvβ3 expression was quantified as ratio of integrin αvβ3 pixel area over nuclei pixel area using Metamorph (*P=0.049 using Mann-Whitney U test). (d) Right, intensity (scale 0 to 3) of β3 expression in mouse orthotopic lung tumors treated with vehicle (n=8) or erlotinib (n=7). Left, immunohistochemical staining of β3. Scale bar, 100 μm.
Tumor spheres formation assays were performed essentially as described previously^17. Briefly, cells were seeded at 1000 to 2000 cells per well and grown for 12 days to 3 weeks. […] The media was replaced with fresh inhibitor every day for erlotinib, lapatinib, lenalidomide and 3 times a week for cisplatin and gemcitabine. Colonies were stained with crystal violet and scored with an Olympus SZH10 microscope.

H1650 cells = experiment: Erlotinib response of human carcinoma cell lines in 3D culture; assay type: cell-based; details: wildtype KRAS and mutant EGFR
Description: (§2) Tumorsphere assay was performed as previously described (10).
(§3) (C) Percentage of integrin β3 positive cells in parental lines vs. after 3 or 8 weeks treatment with erlotinib. (D) Quantification of integrin β3 (ITGβ3) gene expression in human lung cancer biopsies from patients from the BATTLE Study (18) who were previously treated with an EGFR inhibitor and progressed (n=27), versus patients who were EGFR inhibitor naïve (n=39). (*P=0.04 using a Student's t test). (E) Paired human lung cancer biopsies obtained before and after erlotinib resistance were immunohistochemically stained for integrin β3. Scale bar, 50 μm. (F) Right, effect of integrin β3 knockdown on erlotinib resistance of β3-positive cells. Cells were treated with 0.5 μM of erlotinib. […] Left, effect of integrin β3 ectopic expression on erlotinib resistance in FG and H441 cells. […] (G) Right, effect of integrin β3 knockdown on erlotinib resistance in vivo, A549 shCTRL and A549 sh integrin β3 (n=8 per treatment group) were treated with erlotinib (25 mg/kg/day) or vehicle during 16 days. Results are expressed as average of tumor volume at day 16. *P<0.05. Left, orthotopic FG and FG-β3 tumors (>1000 mm^3; n=5 per treatment group) were treated for 30 days with vehicle or erlotinib. Results are expressed as % tumor weight compared to vehicle control. *P<0.05.

FG, H441, and CAPAN1 = experiment: as above; assay type: cell-based; details: tumor cell lines with oncogenic KRAS
Description: as §2, §3

[5] = test system: phosphorylated TBK1 and NF-κB; experiment: Immunoblot analysis of RalB effectors in cells grown in suspension; assay type: cell-based, human; details: for levels of phosphorylated TBK1 and NF-κB: erlotinib (0.5 μM)
Description: Immunoblot analysis of FG, FG-β3 and FG-β3 stably expressing non-silencing or RalB-specific ShRNA, grown in suspension and treated with erlotinib (0.5 μM). pTBK1 refers to phospho-S172 TBK1, p-p65 NF-κB refers to phospho-p65 NF-κB S276, pFAK refers to phospho-FAK Tyr 861. Data are representative of three independent experiments. (b) Tumor spheres formation assay of FG cells ectopically expressing vector control, WT NF-κB FLAG tagged or constitutively active S276D NF-κB FLAG tagged constructs treated with erlotinib (0.5 μM). Error bars represent s.d. (n=3 independent experiments). *P<0.05, **P<0.001, NS=not significant. Immunoblot analysis showing NF-κB WT and S276D NF-κB FLAG transfection efficiency. (c) Tumor spheres formation assay of FG-β3 treating with non-silencing (shCTRL) or NF-κB-specific shRNA and exposed to erlotinib (0.5 μM). Error bars represent s.d. (n=3 independent experiments). *P<0.05, NS=not significant. (d) Dose response in FG-β3 cells treated with erlotinib (10 nM to 5 μM), lenalidomide (10 nM to 5 μM) or a combination of erlotinib (10 nM to 5 μM) and lenalidomide (1 μM). Error bars represent s.d. (n=3 independent experiments). *P<0.05, NS=not significant. (e) Model depicting the integrin αvβ3-mediated EGFR TKI resistance and conquering EGFR TKI resistance pathway and its downstream RalB and NF-κB effectors.
Cells were lysed in either RIPA lysis buffer (50 mM Tris pH 7.4, 100 mM NaCL, 2 mM EDTA, […], 10% Triton, 0.1% SDS) or Triton lysis buffer (50 mM Tris pH 7.5, 150 mN NaCl, 1 mM EDTA, 5 mM MgCl2, 10% Glycerol, 1% Triton) supplemented with complete protease and phosphatase inhibitor mixtures (Roche) and centrifuged at 13,000 g for 10 min at 4° C. Protein concentration was determined by BCA assay. […]
(A) Effect of RalB knockdown on erlotinib resistance of β3-positive epithelial cancer cell lines. […] Results are expressed as % of tumor weight changes after erlotinib treatment compared to vehicle. **P<0.01. […]

[6] = test system: stage IV non-small cell lung cancer; experiment: Serial biopsies from NSCLC patients on erlotinib therapy; assay type: in vivo, human
From the text: Tumor biopsies from University of California, San Diego (UCSD) Medical Center stage IV non-small cell lung cancer patients were obtained before erlotinib treatment and 3 patients before and after erlotinib resistance. All biopsies are from lung or pleural effusion. […] This work was approved by the UCSD Institutional Review Board (IRB).

[7] = test system: H441 human lung adenocarcinoma orthotopic tumors; experiment: Orthotopic lung cancer xenograft model; assay type: in vivo, mice
From the text: as §1

Compound: CS(=O)(=O)CCNCc1ccc(-c2ccc3ncnc(Nc4ccc(OCc5cccc(F)c5)c(Cl)c4)c3c2)o1 [lapatinib]
- effect of β3 expression on drug response [1]: reduced sensitivity

Compound: CC(C)C[C@H](NC(=O)[C@H](Cc1ccccc1)NC(=O)c1cnccn1)B(O)O [bortezomib]
- tumor growth [2]: failed to impact tumor growth

Compound: Nc1ccn([C@@H]2O[C@H](CO)[C@@H](O)C2(F)F)c(=O)n1 [gemcitabine]
- effect of integrin β3 expression on resistance [3]: did not impact resistance
- effect of αvβ3 expression on drug resistance (FG and FG-β3 cells): failed to protect cells
- effect of β3 expression on drug response [1]: did not impact the response

Compound: Nc1cccc2c1CN(C1CCC(=O)NC1=O)C2=O (racemic) [lenalidomide, (RS)-3-(4-amino-1-oxo-3H-isoindol-2-yl)piperidine-2,6-dione]
- tumor growth [2]: failed to impact tumor growth
- response of β3-positive cells, tumorsphere formation in soft agar [4]: resistant

Compound: C#Cc1cccc(Nc2ncnc3cc(OCCOC)c(OCCOC)cc23)c1 [erlotinib, N-(3-ethynylphenyl)-6,7-bis(2-methoxyethoxy) quinazolin-4-amine]
- EGFR phosphorylation in tumor lysates (EGFR phosphorylation): suppressed EGFR phosphorylation
- increase in tumor cell sensitivity to erlotinib (PANC-1 cells): 10 fold
- erlotinib sensitivity (H1650 cells): resistant
- erlotinib sensitivity (FG, H441, and CAPAN1): sensitive
- activation of TBK1 and NF-κB ([5]; FG and FG-β3, erlotinib (0.5 μM), Example 2): decreased the activation of these effectors only in the absence of integrin β3
- levels of phosphorylated TBK1 and NF-κB ([5]; αvβ3 negative cells): reduced levels of phosphorylated TBK1 and NF-κB
- levels of phosphorylated TBK1 and NF-κB ([5]; β3-positive cells): remained activated
- time to disease progression ([6]; Patient 1): 920 days
- time to disease progression ([6]; Patient 2): 92 days
- time to disease progression ([6]; Patient 3): 120 days
- initial clinical response ([6]; all 3 patients): initial partial response
- time treated until moribund ([7]; 100 mg/kg/day by oral gavage, start 3 weeks after tumor cell injection): ~58 days
- tumor response to systemic erlotinib ([7]; systemic erlotinib treatment for 7-8 weeks): developed resistance
- effect of β3 expression on drug response [1]: reduced sensitivity
- response of β3-positive cells, tumorsphere formation in soft agar [4]: resistant

Compound: O=C(Nc1cc(Cl)cc2c1[nH]c1cnccc12)c1cccnc1 [PS-1145]
- response of β3-positive cells, tumorsphere formation in soft agar [4]: resistant

Compound: N.N.[Cl][Pt][Cl] [cisplatin]
- effect of integrin β3 expression on resistance [3]: did not impact resistance
- effect of αvβ3 expression on drug resistance (FG and FG-β3 cells): failed to protect cells
- effect of β3 expression on drug response [1]: did not impact the response

Compound: C[C@]1(O)C[C@@H](c2nc(-c3ccc4ccc(-c5ccccc5)nc4c3)c3c(N)nccn32)C1 [OSI-906]
- effect of αvβ3 expression on drug resistance (FG and FG-β3 cells): induced resistance
- effect of β3 expression on drug response [1]: reduced sensitivity
